PMC10249623 (Environmental Science & Technology, 2023)
Where two headings read alike, the source gives them in different places. Marks after values point to notes of the source that are not given here.

Columns and labels:
[1] = Direct measurement of Kaw using the standard VPR-HS method; assay type: physicochemical; details: measured by the VPR-HS method in this study, 25 °C
Text: Kaw values for five PFAS were directly measured using a standard VPR-HS method, as in the literature.[7],[8] The experimental procedure is similar to what has been described previously for KHxd/air([21]) and is summarized in SI-3.

[2] = Air/water partition coefficient via hexadecane/air/water thermodynamic cycle (eq 1); assay type: physicochemical; details: for log Kaw eq 1: 25 °C, KHxd/w divided by KHxd/air
Description: The objectives of this study are to obtain new experimental data for Kaw at 25 °C for a series of neutral PFAS and to evaluate Kaw prediction models. […] To circumvent the difficulty associated with direct measurement of Kaw, we determined Kaw indirectly by measuring the hexadecane/water partition coefficient (KHxd/w) and applying the hexadecane/air/water thermodynamic cycle: [drawing 1] 1 where KHxd/air is the hexadecane/air partition coefficient. KHxd/w can be measured more reliably than Kaw because gas phase quantification is not needed and hexadecane has a larger solubilization capacity than water, which minimizes the problem of third-phase sorption. […] The new Kaw data for 21 PFAS were compared to predictions by four models that are often used in environmental risk assessments.

[3] = Hexadecane/water partition coefficient, batch partition method; assay type: physicochemical; details: for log KHxd/w batch partition method mean: 25 °C, n = 5; for log KHxd/w with pure water lower than with 1 mM HCl solution by: preliminary experiments, pure water vs 1 mM HCl
[4] = Hexadecane/water partition coefficient, modified VPR-HS method; assay type: physicochemical; details: 25 °C
Description: KHxd/w was also measured with a modified version of the VPR-HS method; 20 mL headspace vials were filled with water and hexadecane with different volume ratios. The total liquid volume was always 20 mL. All vials received the same amount of the target compound. After equilibration at 25 °C, the headspace was injected into the GC/MS. […] Here, response linearity as well as no significant mass of the compound in the headspace and any other interface (e.g., vial wall, hexadecane/water interface, septum) was assumed. As α, m, and Vtot (=20 mL) are constant for a given compound, KHxd/w can be fitted on the data of PA vs VHxd. Theoretically, KHxd/w could be determined with a minimum of two VHxd conditions (e.g., 0 and 20 mL), whereas at least four VHxd values were prepared in this work.

[5] = Hexadecane/water partition coefficient, shared-headspace method; assay type: physicochemical; details: for log KHxd/w shared-headspace method mean: 25 °C, n = 5
Description: The method concept is based on the existing publications that used a shared-headspace system for salting-out experiments[26] and ecotoxicity tests.[27],[28] Hexadecane solution of PFAS was placed in a 350 μL insert hosted by a 1.5 mL GC vial. This small vial was put in a 10 mL headspace vial that contained 1 mL of water. The 10 mL vial was closed with a PTFE-lined septum and gently shaken at 25 °C for 24 h. During this time, the compound dissolved in hexadecane was partially transferred to water via the headspace until a three-phase partition equilibrium was reached between hexadecane, air, and water. Water was then sampled and immediately extracted with n-hexane for GC/MS analysis. The hexadecane phase was also analyzed, which confirmed 85–100% mass conservation (Table S3). KHxd/w was obtained from the measured concentration in water, as in the batch partition method. […] The shared-headspace method is useful for compounds with sufficient volatility (relatively high Kaw, low KHxd/air) and hydrophobicity (relatively high KHxd/w), as these properties ensure an efficient transfer from hexadecane to water via air and negligible concentration depletion in hexadecane. Therefore, nine PFAS that meet this requirement were measured by this method, while all eight sulfonamides and four short-chain FTOHs were not.
SI-1 Extended descriptions for experimental methods
Pure PFAS were dissolved in hexadecane either directly or using acetone as carrier solvent. Up to three PFAS were mixed in hexadecane and investigated simultaneously. The PFAS concentration in hexadecane was 0.1–2000 mg/L, depending on the expected KHxd/w and the sensitivity of the quantification method. The acetone content in hexadecane was up to 0.3% (v/v). This acetone should have largely partitioned into water during the partition experiment, where the final concentration in water was estimated to be < 0.3% (v/v). We assumed that this concentration of acetone in water does not have a significant influence on partition coefficients of PFAS. […]
The water phase was analyzed directly by liquid chromatography/mass spectrometry (LC/MS) (for PFBSA, PFHxSA, MeFBSA, MeFHxSA, MeFBSE), diluted with acetonitrile and analyzed with LC/MS (for PFOSA EtFHxSA, EtFHxSE), or liquid-liquid-extracted with n-hexane and analyzed by gas chromatography/mass spectrometry (GC/MS) (for all others). The hexadecane phase was back-extracted with water (for PFBSA, PFHxSA) or with 0.1 mM NaOH water (for PFOSA) and measured by LC/MS, or it was diluted with n-hexane by a factor of 100–500 and analyzed by GC/MS (for all others). […]
The 95% confidence interval (CI) of the mean (x) was calculated with the formula, x ± 2.78 SD/√5, where SD is the standard deviation, based on the t-distribution and n = 5. […]
PFHxSA, PFOSA, MeFBSA, MeFHxSA, and EtFHxSA were performed using 1 mM HCl aqueous solution […]
A shared headspace method was used to measure KHxd/w for nine PFAS. In this method, hexadecane solution of PFAS was prepared as described above and 300 μL was placed in a 350-μL glass insert

[6] = cited from earlier work
[7] = 1 mM HCl was used instead of pure water

SMILES | log Kaw eq 1 [2] | log KHxd/w batch partition method mean ([3]; pure water) | log KHxd/w shared-headspace method mean [5] | also measured
OCC(F)(F)C(F)(F)C(F)(F)F [3:1 FTOH, 1H,1H-perfluorobutan-1-ol] | – | – | – | log Kaw VPR-HS [1]: –2.03 ^d
OCCCC(F)(F)C(F)(F)C(F)(F)F [3:3 FTOH, 3-(perfluoropropyl)propan-1-ol] | –2.17 | 0.52 | – | log Kaw VPR-HS [1]: –2.04 ^d; log KHxd/w modified VPR-HS method mean [4]: 0.32
FC(F)(F)C(F)(F)C(F)(F)C(F)(F)CCI [4:2 FTI, 1H,1H,2H,2H-perfluorohexyl iodide] | 1.60 | – | 4.93 | –
C=C(C)C(=O)OCCC(F)(F)C(F)(F)C(F)(F)C(F)(F)F [4:2 FTMAC, 1H,1H,2H,2H-perfluorohexyl methacrylate] | 0.62 | – | 4.65 | log Kaw VPR-HS [1]: –0.14 ^d
OCCC(F)(F)C(F)(F)C(F)(F)C(F)(F)F [4:2 FTOH, 1H,1H,2H,2H-perfluorohexan-1-ol] | –1.57 | 0.79 | – | log Kaw VPR-HS [1]: –1.56; log Kaw VPR-HS or VP/S ([6]; 23 or 24 °C ref 12): −1.52; log Kaw VPR-HS or VP/S ([6]; literature value ref 7): −1.30; log Kaw VPR-HS or VP/S ([6]; literature value ref 8): −1.63; log Kaw VPR-HS or VP/S ([6]; literature value ref 9): −1.21; log KHxd/w modified VPR-HS method mean [4]: 0.75
OCCCCC(F)(F)C(F)(F)C(F)(F)C(F)(F)F [4:4 FTOH, 4-(perfluorobutyl)butan-1-ol] | –1.97 | 1.60 | – | log Kaw VPR-HS [1]: –1.28 ^d; log KHxd/w modified VPR-HS method mean [4]: 1.43
CC(O)C(F)(F)C(F)(F)C(F)(F)C(F)(F)C(F)(F)F (stereo not shown) [5:2s FTOH, 1H,1H,1H,2H-perfluoroheptan-2-ol] | –0.15 | 2.00 | 2.04 | log KHxd/w modified VPR-HS method mean [4]: 1.55
FC(F)(F)C(F)(F)C(F)(F)C(F)(F)C(F)(F)C(F)(F)CI [6:1 FTI, 1H,1H-perfluoroheptyl iodide] | 2.28 | – | 5.66 | –
FC(F)C(F)(F)C(F)(F)C(F)(F)C(F)(F)C(F)(F)CI [6:1 FTI-7H, 1H,1H,7H-perfluoroheptyl iodide] | 0.70 | – | 4.62 | log Kaw lower than that of 6:1 FTI by ([2]; difference to 6:1 FTI): 1.6 log units; log KHxd/w lower than that of 6:1 FTI by ([5]; difference to 6:1 FTI): 1.0 log unit
C=CC(=O)OCCC(F)(F)C(F)(F)C(F)(F)C(F)(F)C(F)(F)C(F)(F)F [6:2 FTAC, 1H,1H,2H,2H-perfluorooctyl acrylate] | 1.27 | – | 5.43 | –
OCCC(F)(F)C(F)(F)C(F)(F)C(F)(F)C(F)(F)C(F)(F)F [6:2 FTOH, 1H,1H,2H,2H-perfluorooctan-1-ol] | –0.64 | 2.50 | 2.51 | log Kaw VPR-HS or VP/S ([6]; 23 or 24 °C ref 12): −0.44; log Kaw VPR-HS or VP/S ([6]; literature value ref 7): –1.47; log Kaw VPR-HS or VP/S ([6]; literature value ref 8): −0.56; log Kaw VPR-HS or VP/S ([6]; literature value ref 9): 0.37
OCC(F)(F)C(F)(F)C(F)(F)C(F)(F)C(F)(F)C(F)(F)C(F)(F)F [7:1 FTOH, 1H,1H-perfluorooctan-1-ol] | –0.26 | – | 2.70 | –
OCCC(F)(F)C(F)(F)C(F)(F)C(F)(F)C(F)(F)C(F)(F)C(F)(F)C(F)(F)F [8:2 FTOH, 1H,1H,2H,2H-perfluorodecan-1-ol] | 0.11 | – | 3.75 | log Kaw VPR-HS or VP/S ([6]; 23 or 24 °C ref 12): 0.96; log Kaw VPR-HS or VP/S ([6]; literature value ref 7): –1.82; log Kaw VPR-HS or VP/S ([6]; literature value ref 8): 0.58; log Kaw VPR-HS or VP/S ([6]; literature value ref 9): 0.31
CCNS(=O)(=O)C(F)(F)C(F)(F)C(F)(F)C(F)(F)C(F)(F)C(F)(F)F [EtFHxSA, N-ethyl perfluorohexane sulfonamide] | –1.58 | – | – | log KHxd/w batch partition method mean [3, 7]: 2.95 ^c
CCN(CCO)S(=O)(=O)C(F)(F)C(F)(F)C(F)(F)C(F)(F)C(F)(F)C(F)(F)F [EtFHxSE, N-ethyl perfluorohexane sulfonamidoethanol] | –3.02 | 2.76 | – | –
CNS(=O)(=O)C(F)(F)C(F)(F)C(F)(F)C(F)(F)F [MeFBSA, N-methyl perfluorobutane sulfonamide] | –2.85 | – | – | log KHxd/w batch partition method mean [3, 7]: 0.82 ^c
CN(CCO)S(=O)(=O)C(F)(F)C(F)(F)C(F)(F)C(F)(F)F [MeFBSE, N-methyl perfluorobutane sulfonamidoethanol] | –4.35 | 0.49 | – | –
CNS(=O)(=O)C(F)(F)C(F)(F)C(F)(F)C(F)(F)C(F)(F)C(F)(F)F [MeFHxSA, N-methyl perfluorohexane sulfonamide] | –2.01 | – | – | log KHxd/w batch partition method mean [3, 7]: 2.25 ^c
NS(=O)(=O)C(F)(F)C(F)(F)C(F)(F)C(F)(F)F [PFBSA, perfluorobutane sulfonamide] | –4.89 | – | – | log KHxd/w batch partition method mean [3, 7]: –1.15 ^c; log KHxd/w with pure water lower than with 1 mM HCl solution by [3]: 0.5–0.9 log units
NS(=O)(=O)C(F)(F)C(F)(F)C(F)(F)C(F)(F)C(F)(F)C(F)(F)F [PFHxSA, perfluorohexane sulfonamide] | –3.94 | – | – | log KHxd/w batch partition method mean [3, 7]: 0.39 ^c; log KHxd/w with pure water lower than with 1 mM HCl solution by [3]: 0.5–0.9 log units
NS(=O)(=O)C(F)(F)C(F)(F)C(F)(F)C(F)(F)C(F)(F)C(F)(F)C(F)(F)C(F)(F)F [PFOSA, perfluorooctane sulfonamide] | –3.04 | – | – | log KHxd/w batch partition method mean [3, 7]: 1.80 ^c
